Source: the supplement of paper PMC10307832

Columns and labels:
Assay in all cases: relative viability (nuclei count vs DMSO), 5 days (fraction); higher = more cells survive
GSK126 + Alpelisib = compound: CC[C@H](C)N1C=C(C2=C(C=C(C=C21)C3=CN=C(C=C3)N4CCNCC4)C(=O)NCC5=C(C=C(NC5=O)C)C)C [GSK126] + Cc1nc(NC(=O)N2CCC[C@H]2C(N)=O)sc1-c1ccnc(C(C)(C)C(F)(F)F)c1 [Alpelisib] (partner 2 µM)
Method in brief: (§1)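 Relative viability equals treated-well nuclei counts divided by vehicle-well nuclei counts. Counts came from 4× images of lung cancer cell lines grown in 1536-well plates for 5 days after pin-tool dosing on the day after seeding. Dosing used one drug alone or a fixed anchor-drug dose plus five library-drug doses (not always all listed) in √10 steps, and values are medians of duplicate plates.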

MLN4924 + Lapatinib = compound: NS(=O)(=O)OC[C@@H]1C[C@@H](n2ccc3c(N[C@H]4CCc5ccccc54)ncnc32)C[C@@H]1O [MLN4924] + CS(=O)(=O)CCNCc1ccc(-c2ccc3ncnc(Nc4ccc(OCc5cccc(F)c5)c(Cl)c4)c3c2)o1 [Lapatinib] (partner 2 µM)
Method in brief: as §1

Carboplatin + Foretinib = compound: C1CC(C1)(C(=O)O)C(=O)O.[NH2-].[NH2-].[Pt+2] [Carboplatin] + COc1cc2c(Oc3ccc(NC(=O)C4(C(=O)Nc5ccc(F)cc5)CC4)cc3F)ccnc2cc1OCCCN1CCOCC1 [Foretinib] (partner 0.25 µM)
Method in brief: as §1

Carboplatin + Navitoclax = compound: C1CC(C1)(C(=O)O)C(=O)O.[NH2-].[NH2-].[Pt+2] [Carboplatin] + CC1(C)CCC(c2ccc(Cl)cc2)=C(CN2CCN(c3ccc(C(=O)NS(=O)(=O)c4ccc(N[C@H](CCN5CCOCC5)CSc5ccccc5)c(S(=O)(=O)C(F)(F)F)c4)cc3)CC2)C1 [Navitoclax] (partner 0.5 µM)
Method in brief: as §1

UMC-11
relative viability (GSK126 + Alpelisib; first compound 0.08 µM): 1.03 | relative viability (GSK126 + Alpelisib; first compound 0.253 µM): 1.1 | relative viability (GSK126 + Alpelisib; first compound 0.8 µM): 0.983 | relative viability (GSK126 + Alpelisib; first compound 2.53 µM): 0.961 | relative viability (GSK126 + Alpelisib; first compound 8 µM): 1.17 | relative viability (MLN4924 + Lapatinib; first compound 0.04 µM): 0.39 | relative viability (MLN4924 + Lapatinib; first compound 0.1265 µM): 0.383 | relative viability (MLN4924 + Lapatinib; first compound 0.4 µM): 0.271 | relative viability (MLN4924 + Lapatinib; first compound 1.265 µM): 0.122 | relative viability (MLN4924 + Lapatinib; first compound 4 µM): 0.143 | relative viability (Carboplatin + Foretinib; first compound 0.08 µM): 1.03 | relative viability (Carboplatin + Foretinib; first compound 0.253 µM): 1.03 | relative viability (Carboplatin + Foretinib; first compound 0.8 µM): 1.06 | relative viability (Carboplatin + Foretinib; first compound 2.53 µM): 0.941 | relative viability (Carboplatin + Foretinib; first compound 8 µM): 0.718 | relative viability (Carboplatin + Navitoclax; first compound 0.08 µM): 0.325 | relative viability (Carboplatin + Navitoclax; first compound 0.253 µM): 0.355 | relative viability (Carboplatin + Navitoclax; first compound 0.8 µM): 0.342 | relative viability (Carboplatin + Navitoclax; first compound 2.53 µM): 0.313 | relative viability (Carboplatin + Navitoclax; first compound 8 µM): 0.256
